Assay results from patent US12606543B2, “Indole derivatives as serotonergic agents useful for the treatment of disorders related thereto” (priority 2023, dated 2026).
Where two headings read alike, the source gives them in different places.

What was measured:
[1] = Pharmacokinetic studies in rat (i.v.); format: in vivo; details: male, Sprague-Dawley, plasma; for concentration at 0.25 h / concentration at 1 h / concentration at 4 h: intravenous, dose per Dose column (1.32-2.09 mg/kg); for half-life / AUC(0-t): iv, rat plasma, i.v., dose per Dose column; for half-life: estimated from 2 points only
Method: Animals: Male Sprague-Dawley rats (˜225-350 g) from Charles River Labs were acclimatized for a minimum of 5 days prior to start of study procedures. Body weights were recorded on the day of dosing.
Any abnormalities were documented including presence/absence of wet dog shakes/back muscle contractions (WDS/BMC).
Dosing: Formulations were administered intravenously (i.v.) via the tail vein using a 25 G needle connected to a 1 cc syringe.
The exemplary compounds of Formula (I) were freshly prepared at the appropriate concentrations in 5% Tween-80 in saline.
Blood collection time (h): 0, […], 1 and 4
Volume/time-point: ˜0.25 mL (saphenous vein)
Instrumentation: AB Sciex QTRAP 4000 or 6500 MS/MS system equipped with an LC system with a binary pump, a solvent degasser, a thermostated column compartment, and a multiplate autosampler.
Analysis software: Phoenix® WinNonlin® 8.3 (Pharsight, Certara, Mountainview, CA).
Analysis methods: non-compartmental analysis, linear up/log down trapezoidal rule.
PK parameters: t1/2 and AUC0-tlast was estimated.
The Compounds of Formula (I) were freshly prepared at the appropriate concentrations in 5% Tween-80 in saline.
Instrumentation: AB Sciex QTRAP 4000 or 6500 MS/MS system equipped with an LC system with a binary pump, a solvent degasser, a thermostated column compartment and a multiplate autosampler.
PK parameters: t1/2 and AUC0-tlast will be estimated.

[2] = Plasma protein binding by equilibrium dialysis, rat; details: for fraction unbound at 6 h, 1 μM: SD, plasma; for fraction unbound at 6 h, 1 μM / recovery at 6 h, 1 µM: rat; for recovery at 6 h, 1 µM: Sprague-Dawley (SD); for % Remaining @ 6 hours: rat plasma
Method: 1. The Frozen Plasma (Stored at −80° C.) was Thawed Immediately in a 37° C. Water Bath.
(§1) The working solution of test compounds and control compound was prepared in DMSO at the concentration of 200 μM, and then the working solution was spiked into plasma. The final concentration of compound was 1 μM. The final concentration of DMSO was 0.5%. Ketoconazole was used as positive control in the assay.
The dialysis membranes were soaked in ultrapure water for 60 minutes to separate strips, then in 20% ethanol for 20 minutes, finally in dialysis buffer for 20 minutes.
The dialysis set up was assembled according to the manufacturer's instruction. Each Cell was with 150 μL of plasma sample and dialyzed against equal volume of dialysis buffer (PBS). The assay was performed in duplicate. The dialysis plate was sealed and incubated in an incubator at 37° C. with 5% CO2 at 100 rpm for 6 hours. At the end of incubation, 50 μL of samples from both buffer and plasma chambers were transferred to wells of a 96-well plate.
50 μL of plasma was added to each buffer samples and an equal volume of PBS was supplemented to the collected plasma sample. 400 μL of precipitation buffer acetonitrile containing internal standards (IS, 200 nM labetalol, 100 nM tolbutamide and 100 nM ketoprofen) was added to precipitate protein and release compounds. Samples were vortexed for 2 minutes and centrifuged for 30 minutes at 3,220 g. Aliquot of 50 μL of the supernatant was diluted by 150 μL acetonitrile containing internal standards: ultra-pure H2O=1:1, and the mixture was used for LC-MS/MS analysis.
All calculations were carried out using Microsoft Excel. The concentrations of test compounds in the buffer and plasma chambers were determined from peak area ratios. The percentages of bound compound were calculated as follows: […]
as §1, with “[…].” for “μM.”

[3] = first animal (R07/R04/R01/R10), read-out: Plasma concentration
[4] = mean of 3 rats, read-out: Plasma concentration, Mean ± SD
[5] = second animal (R08/R05/R02/R11), read-out: Plasma concentration
[6] = third animal (R09/R06/R03/R12), read-out: Plasma concentration
[7] = first animal (R07/R04/R01/R10), read-out: Apparent t1/2 (converted)
[8] = mean of 3 rats, read-out: Apparent t1/2, Mean ± SD (converted)
[9] = second animal (R08/R05/R02/R11), read-out: Apparent t1/2 (converted)
[10] = third animal (R09/R06/R03/R12), read-out: Apparent t1/2 (converted)
[11] = first animal (R07/R04/R01/R10), read-out: AUC0-tlast
[12] = mean of 3 rats, read-out: AUC0-tlast, Mean ± SD
[13] = second animal (R08/R05/R02/R11), read-out: AUC0-tlast
[14] = third animal (R09/R06/R03/R12), read-out: AUC0-tlast

Structure (SMILES)	concentration at 0.25 h [1, 3] [ng/mL]	concentration at 0.25 h [1, 4] [ng/mL]	concentration at 0.25 h [1, 5] [ng/mL]	concentration at 0.25 h [1, 6] [ng/mL]	concentration at 1 h [1, 3] [ng/mL]	concentration at 1 h [1, 4] [ng/mL]	concentration at 1 h [1, 5] [ng/mL]	concentration at 1 h [1, 6] [ng/mL]	concentration at 4 h [1, 3] [ng/mL]	concentration at 4 h [1, 4] [ng/mL]	concentration at 4 h [1, 5] [ng/mL]	concentration at 4 h [1, 6] [ng/mL]	half-life [1, 7] [min]	half-life [1, 8] [min]	half-life [1, 9] [min]	half-life [1, 10] [min]	AUC(0-t) [1, 11] [ng·h/mL]	AUC(0-t) [1, 12] [ng·h/mL]	AUC(0-t) [1, 13] [ng·h/mL]	AUC(0-t) [1, 14] [ng·h/mL]	also measured
[2H]C([2H])(c1c[nH]c2ccc(OCCCCN3C(=O)c4ccccc4C3=O)cc12)[C@H]1CCCN1C([2H])([2H])[2H] [(R) I-244, (R)-2-(4-((3-((1-(Methyl-d3)pyrrolidin-2-yl)methyl-d2)-1H-indol-5-yl)oxy)butyl)isoindoline-1,3-dione]	252	292 ± 59.4	360	263	132	130 ± 21.6	150	107	20.7	22 ± 1.63	23.8	21.4	63.6	63 ± 2.96	60	66	390	415 ± 65.7	490	366	fraction unbound at 6 h, 1 μM [2]: 0.19; recovery at 6 h, 1 µM [2]: 86.5%; % Remaining @ 6 hours [2]: 85.45%
COCCN1CCC[C@@H]1Cc1c[nH]c2ccc(OC)cc12 [(R) I-98, (R)-5-Methoxy-3-((1-(2-methoxyethyl)pyrrolidin-2-yl)methyl)-1H-indole]	411	446 ± 34.1	479	449	128	113 ± 14.2	110	100	2.48	2.32 ± 0.139	2.25	2.23	30.8	30.4 ± 0.473	29.9	30.3	403	409 ± 15.1	426	397	fraction unbound at 6 h, 1 μM [2]: 0.569; recovery at 6 h, 1 µM [2]: 88%; % Remaining @ 6 hours [2]: 96.55%
